# Measured values from patent US20060062758A1, “Tight junction modulator peptide PN159 for enhanced mucosal delivery of therapeutic compounds” (Nastech Pharmaceutical Comapny Inc., priority 2004, published 2006).
# Non-standard residues stand in square brackets, D forms with d.
# Columns and labels:
# [1] = Permeation kinetics across the in vitro epithelial tissue model; conditions: human, pH 5, Papp; for Papp at 120 min, 40 mg/mL: galantamine 40 mg/mL pH 5.0, calcitonin 1 mg/mL pH 3.5, PTH1-34 1 mg/mL pH 4.5
# Description: (§1) The EpiAirway™ system was developed by MatTek Corp (Ashland, Mass.) as a model of the pseudostratified epithelium lining the respiratory tract. The epithelial cells are grown on porous membrane-bottomed cell culture inserts at an air-liquid interface, which results in differentiation of the cells to a highly polarized morphology. The apical surface is ciliated with a microvillous ultrastructure and the epithelium produces mucus (the presence of mucin has been confirmed by immunoblotting). The inserts have a diameter of 0.875 cm, providing a surface area of 0.6 cm^2. The cells are plated onto the inserts at the factory approximately three weeks before shipping. One “kit” consists of 24 units.
# (§2) A. A “kit” of 24 EpiAirway™ units can routinely be employed for evaluating five different formulations, each of which is applied to quadruplicate wells. Each well is employed for determination of permeation kinetics (4 time points), transepithelial electrical resistance (TER). An additional set of wells is employed as controls, which are sham treated during determination of permeation kinetics, but are otherwise handled identically to the test sample-containing units for determinations of transepithelial resistance and viability.
# (§3) B. In all experiments, the mucosal delivery formulation to be studied is applied to the apical surface of each unit in a volume of 100 μL, which is sufficient to cover the entire apical surface. An appropriate volume of the test formulation at the concentration applied to the apical surface (no more than 100 μL is generally needed) is set aside for subsequent determination of concentration of the active material by ELISA or other designated assay.
# (§4) D. In order to minimize potential sources of error and avoid any formation of concentration gradients, the units are transferred from one 0.9 mL-containing well to another at each time point in the study. These transfers are made at the following time points, based on a zero time at which the 100 μL volume of test material was applied to the apical surface: 15 minutes, 30 minutes, 60 minutes, and 120 minutes.
# (§5) F. At the completion of each time point, the medium is removed from the well from which each unit was transferred, and aliquotted into two tubes (one tube receives 700 μL and the other 200 μL) for determination of the concentration of permeated test material and, in the event that the test material is cytotoxic, for release of the cytosolic enzyme, lactate dehydrogenase, from the epithelium. These samples are kept in the refrigerator if the assays are to be conducted within 24 hours, or the samples are subaliquotted and kept frozen at −80° C. until thawed once for assays. Repeated freeze-thaw cycles are to be avoided.
# (§6) EIA kit (p/n S-1178(EIAH6101) was purchased from Peninsula Laboratories Inc. (Division of BACHEM, San Carlos, Calif., 800-922-1516). 17×120 mm polypropylene conical tubes (p/n 352097, Falcon, Franklin Lakes, N.J.) were used for all sample preparations. Eight standards were used for PTH quantitation. The rest of the assay procedure was the same as the kit inserts.
# (§7) The instant study was designed to evaluate the effect of PN159 itself or in combination with additional permeation enhancers on PTH permeation. The PN159 concentrations evaluated are 25, 50, and 100 μM. The additional permeation enhancers are 45 mg/ml M-β-CD, 1 mg/ml DDPC, and 1 mg/ml EDTA. Sorbitol was used as a tonicifier (146-190 mM) to adjust the osmolarity of formulations to 220 mOsm/kg. The formulation pH was fixed at 4.5. PTH was chosen as a model peptide in this example. 2 mg/ml PTH was combined with PN159 with or without additional permeation enhancers. The combination was tested using an in vitro epithelial tissue model to monitor PTH permeation, transepithelial electrical resistance (TER), and the cytotoxicity of the formulation by LDH assay.
# (§8) The effect of PN159 on permeation of MC-4RA was evaluated in this study.
# [2] = test system: EpiAirway™ Cell Membrane (mucosal epithelial cell layer); test: as above; conditions: for Perm(x)/Perm(159) +/− SEM: Table 6, D-amino acid substitutions, relative to PN159
# Description: as §1, §2, §3, §4, §5, §6, §7, §8
# [3] = test system: EpiAirway™ Cell Membrane (mucosal epithelial cell layer); test: Transepithelial electrical resistance (TER), EpiAirway in vitro epithelial tissue model; type: cell-based; conditions: for TER(x)/TER(159) +/− SEM: Table 6, D-amino acid substitutions
# Description: One “kit” consists of 24 units.
# A. Respiratory airway epithelial cells form tight junctions in vivo as well as in vitro, and thereby restrict the flow of solutes across the tissue. These junctions confer a transepithelial resistance of several hundred ohms×cm^2 in excised airway tissues. In the MatTek EpiAirway™ units, the transepithelial electrical resistance (TER) is reported by the manufacturer to be routinely around 1000 ohms×cm^2. […] The porous membrane-bottomed units without cells, conversely, provide only minimal transmembrane resistance (approximately 5-20 ohms×cm^2).
# B. Accurate determinations of TER require that the electrodes of the ohmmeter be positioned over a significant surface area above and below the membrane, and that the distance of the electrodes from the membrane be reproducibly controlled. The method for TER determination recommended by MatTek and employed for all experiments herein employs an “EVOM”™ epithelial voltohmmeter and an “ENDOHM”™ tissue resistance measurement chamber from World Precision Instruments, Inc., Sarasota, Fla.
# D. Determinations of TER are made with 1.5 mL of PBS in the chamber and 350 μL of PBS in the membrane-bottomed unit being measured. The top electrode is adjusted to a position just above the membrane of a unit containing no cells (but containing 350 μL of PBS) and then fixed to ensure reproducible positioning. The resistance of a cell-free unit is typically 5-20 ohms×cm^2 (“background resistance”).
# G. The unit is gently blotted free of excess PBS on its exterior surface only before being placed into the chamber (containing a fresh 1.5 mL aliquot of PBS). An aliquot of 350 μL PBS is added to the unit before the top electrode is placed on the chamber and the TER is read on the EVOM meter.
# I. The units are read in the following sequence: all sham-treated controls, followed by all formulation-treated samples, followed by a second TER reading of each of the sham-treated controls. All TER values are reported as a function of the surface area of the tissue.
# TER was calculated as: TER=(R1−Rb)×A Where R1 is resistance of the insert with a membrane, Rb is the resistance of the blank insert, and A is the area of the membrane (0.6 cm^2). The effect of pharmaceutical formulations comprising intranasal delivery-enhancing agents, for example, permeabilizing peptides as measured by TER across the EpiAirway™ Cell Membrane (mucosal epithelial cell layer). Permeabilizing peptides are applied to the EpiAirway™ Cell Membrane at a concentration of 1.0 mM. A decrease in TER value relative to the control value (control=approximately 1000 ohms-cm^2; normalized to 100.) indicates a decrease in cell membrane resistance and an increase in mucosal epithelial cell permeability.
# (§9) The formulation pH was fixed at 4.5.
# [4] = test system: EpiAirway™ Cell Membrane (mucosal epithelial cell layer); test: LDH assay (cytotoxicity), in vitro epithelial tissue model; type: cell-based; conditions: Example 2, PTH study; PN159 25-100 μM
# Description: Repeated freeze-thaw cycles are to be avoided.
# The amount of cell death was assayed by measuring the loss of lactate dehydrogenase (LDH) from the cells using a CytoTox 96 Cytoxicity Assay Kit (Promega Corp., Madison, Wis.). Fifty microliters of sample was loaded into a 96-well assay plates. Fresh, cell-free culture medium was used as a blank. 50 μl of substrate solution was added to each well and the plates incubated for 30 minutes at room temperature in the dark. Following incubation, 50 μl of stop solution was added to each well and the plates read on an optical density plate reader at 490 nm.
# as §9
compound,measurement,setting,value
"COc1ccc2c3c1O[C@H]1C[C@@H](O)C=C[C@@]31CCN(C)C2 [Galantamine, galantamine, reference compound]","Papp at 120 min, 40 mg/mL","[1]; [PN159] 0 μM, PYY3-36 1 mg/mL, pH was 5.0",~2.1 ×10⁻⁶ cm/s
same,"Papp at 120 min, 40 mg/mL","[1]; [PN159] 25 μM, PYY3-36 1 mg/mL pH 7.0",5.1 ×10⁻⁶ cm/s
same,"Papp at 120 min, 40 mg/mL",[1]; [PN159] 50 μM,6.2 ×10⁻⁶ cm/s
same,"Papp at 120 min, 40 mg/mL","[1]; [PN159] 100 μM, PYY3-36 1 mg/mL pH 7.0",7.2 ×10⁻⁶ cm/s
same,"Papp at 120 min, 40 mg/ml",[1]; in the presence of 25 nM PN159 (as printed in text),5.1 ×10⁻⁶ cm/s
same,"Papp at 120 min, 40 mg/ml",[1]; in the presence of 50 nM PN159 (as printed in text),6.2 ×10⁻⁶ cm/s
same,"Papp at 120 min, 40 mg/ml",[1]; in the presence of 100 nM PN159 (as printed in text),7.2 ×10⁻⁶ cm/s
same,Papp,"[2]; [PN159] 0 μM, galantamine 40 mg/mL pH 5.0, calcitonin 1 mg/mL pH 3.5, PTH1-34 1 mg/mL pH 4.5, PYY3-36 1 mg/mL, pH was 5.0",2.1 ×10⁻⁶ cm/s
same,increase in Papp,[2]; drug in the presence of PN159 vs drug alone,2.5-3.5 fold
NH2-LKlLKkLlkKLLkLL-amide (H-LK[dL]LK[dK]L[dL][dK]KLL[dK]LL-NH2) [PN407],TER(x)/TER(159) +/− SEM,[3]; relative to PN159,1.08 +/− 0.01
same,Relative TER Decrease,"[3]; Table 8, amino acid substitutions, relative to PN159",1.1
same,permeability enhancement (in words),[2]; PN159 analogues compared with PN159,minor but statistically significant improvement on permeability
same,Perm(x)/Perm(159) +/− SEM,[2],1.20 +/− 0.05
NH2-alklaaklaklalklalk-amide (ALKLAAKLAKLALKLALK; all D-amino acids; C-terminal amide) [PN408],TER(x)/TER(159) +/− SEM,[3]; relative to PN159,1.05 +/− 0.01
same,Perm(x)/Perm(159) +/− SEM,[2],1.16 +/− 0.07
NH2-klalklalkalkaalkla-amide (H-[dK][dL][dA][dL][dK][dL][dA][dL][dK][dA][dL][dK][dA][dA][dL][dK][dL][dA]-NH2; SMILES CC(C)C[C@@H](NC(=O)[C@H](N)CCCCN)C(=O)N[C@H](C)C(=O)N[C@H](CC(C)C)C(=O)N[C@H](CCCCN)C(=O)N[C@H](CC(C)C)C(=O)N[C@H](C)C(=O)N[C@H](CC(C)C)C(=O)N[C@H](CCCCN)C(=O)N[C@H](C)C(=O)N[C@H](CC(C)C)C(=O)N[C@H](CCCCN)C(=O)N[C@H](C)C(=O)N[C@H](C)C(=O)N[C@H](CC(C)C)C(=O)N[C@H](CCCCN)C(=O)N[C@H](CC(C)C)C(=O)N[C@H](C)C(N)=O) [PN393],TER(x)/TER(159) +/− SEM,[3]; relative to PN159,1.06 +/− 0.00
same,Perm(x)/Perm(159) +/− SEM,[2],1.02 +/− 0.16
Triton X [reference compound],TER reduction (in words),"[3]; Example 2, PTH formulation study, applied to apical side",significant TER reduction
same,cytotoxicity (LDH),[4],significant cytotoxicity
